# Measurements from patent publication US8617563B2, “Antichlamydial agents” (Duke University, priority 2011, dated 2013).
# Entries after “also recorded” stand apart in the source; their conditions may differ. Where no end group is shown, it is not given here.
# Key:
# [1] = test system: Chlamydia-infected HeLa cells; test: Inclusion integrity and vimentin cage by immunofluorescence and TEM; type: cell-based, C. trachomatis; conditions: for Vimentin re-organization / cage around the inclusion: infected HeLa cells treated with peptide
# Experimental: FIG. 9 depicts (A) CPAF inhibitory peptides block the generation of Chlamydia infectious particles. L2-infected HeLa cells were treated at 12 hpi with increasing concentration of peptides. EBs were harvested at 30 hpi and inclusion-forming units (IFU) were quantified on fresh cell monolayers. (B-D) CPAF activity is required to maintain inclusion integrity. The integrity of the inclusion was determined by assessing the immunolocalization of the inclusion membrane marker IncA (red) and Chlamydia (green) (B) and by transmission electron microscopy (C). […] (D) The percentage of vimentin-positive inclusions was determined by IF in infected cells treated with SEQ ID NO:7 and SEQ ID NO:11 (12 hpi) peptides at 24 hpi. (E) Activation of inflammatory cytokines upon inhibition of CPAF activity. Levels of IL-8 supernatants from Chlamydia infected cells treated with peptides as in (B-D) were determined at 24 hpi by ELISA.
# FIG. 19 depicts HeLa cells infected with C. trachomatis L2, treated with SEQ ID NO:11 and SEQ ID NO:7, and harvested at 30 hpi. (A) Immunofluorescence microscopy via staining with an anti-vimentin antibody (“vimentin”) and an anti-Chlamydia L2 antibody (“L2”). […] (B) Cells were lysed in the presence of protease inhibitors, resolved by SDS-PAGE, and subjected to immunoblot analysis. Vimentin, RpoD (bacterial loading control), and GAPDH (host loading control) were visualized with substrate-specific antibodies).
# For routine indirect immunofluorescence, HeLa cells were grown on glass coverslips and infected with Chlamydia at an MOI of 1. At the indicated times post-infection, cells were fixed with cold 3% formaldehyde, permeabilized with 0.1% Tx-100, blocked in 2% bovine serum albumin (BSA), and incubated with primary antibody followed by secondary fluorophore-conjugated anti-rabbit or anti-mouse IgG (available from Molecular Probes). Host and Chlamydial DNA were stained with 1 μM Hoechst (available from Invitrogen). […]
# C. muridarum = C. muridarum growth in HeLa cells (recovered IFUs); type: cell-based; conditions: infected HeLa cells, recovered IFUs
# Experimental: Cells were infected with an MOI of 1 and treated with CPAF inhibitor (SEQ ID NO:7) or control (SEQ ID NO:11) peptides at 12 hpi, fixed at 24 hpi and analyzed by IF with anti-L2 polyclonal antisera. Inclusion size was determined by measuring the inclusion diameter in μm by confocal microscopy of 50 infected cells. The number of cells with fragmented inclusions was determined by counting the number of infected cells out of 50 with more than one inclusion. (C) Sequence alignment and % sequence identify of full length CPAF and predicted inhibitory peptide sequence between C. trachomatis serovar LGV-L2, Chlamydia muridarum, and Chlamydophila caviae was determined using Geneious software (available at the Geneious website). […] GPIC or C. muridarum infected whole cell protein lysate was preincubated with SEQ ID NO:7 peptide or SEQ ID NO:11 control peptide, mixed with GST-IncC at 37° C., resolved by SDS-PAGE and stained with Coomassie blue. […] Inhibition of C. muridarum (E) and C. ceviae (F) growth was determined by counting the number of recovered IFUs. […] Inclusions were detected by IF with anti-LGV-L2 (A, B, E) antisera or anti-chlamydial LPS (F) monoclonal antibodies, and host nuclei sere detected by staining.
substance,measurement,setting,value
SLFYSPMVPHFWAELRNHYATSGLKRRRRRRRRR-NH2 [SEQ ID NO:7],Vimentin re-organization / cage around the inclusion,[1],loss of vimentin re-organization around the inclusion; also recorded: increased disorder in the position of the vimentin cage
same,Vimentin re-organization / cage around the inclusion,[1]; listed as peptide 4,loss of the vimentin cage
same,"Inclusion structure integrity (IncA, Cap1 localisation)",[1]; prolonged treatment (>8 h),collapse of the inclusion structure
same,C. muridarum replication,C. muridarum,blocked C. muridarum replication; also recorded: impairs growth in C. muridarum
